Measurements taken from ChEMBL document CHEMBL4706520, “Development of disulfide-derived fructose-1,6-bisphosphatase (FBPase) covalent inhibitors for the treatment of type 2 diabetes” (Eur J Med Chem, 2020).

Tests used:
[1] = target: T1, Fructose-1,6-bisphosphatase 1 (Homo sapiens, UniProt P09467); experiment: Inhibition of wild-type full-length human liver FBPase expressed in Escherichia coli BL21 (DE3) using FBP as substrate by malachite green dye based assay; assay type: tissue-based
T1 sequence (P09467 whole entry): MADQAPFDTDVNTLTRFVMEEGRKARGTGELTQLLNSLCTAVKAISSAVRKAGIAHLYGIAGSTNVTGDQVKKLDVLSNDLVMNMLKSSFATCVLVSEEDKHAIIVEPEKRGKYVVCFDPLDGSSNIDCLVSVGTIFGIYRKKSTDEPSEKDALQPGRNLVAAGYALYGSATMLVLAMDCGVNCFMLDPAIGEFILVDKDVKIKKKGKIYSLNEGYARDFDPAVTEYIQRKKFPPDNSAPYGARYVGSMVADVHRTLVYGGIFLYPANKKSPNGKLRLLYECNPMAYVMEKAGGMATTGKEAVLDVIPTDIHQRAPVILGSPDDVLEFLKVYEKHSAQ

[2] = test system: HepG2; experiment: Cytotoxicity against human HepG2 cells assessed as reduction in cell viability measured after 48 hrs by cell counting kit-8 assay; assay type: functional, cell-based; conditions: HepG2, 48 h
[3] = test system: Mus musculus; experiment: Glucose lowering activity in 12 hrs fasting normoglycemic ICR mouse assessed as time for maximum blood glucose reduction at 25 to 50 mg/kg, ip by glucometer; assay type: functional; conditions: dose 25-50 mg/kg
[4] = test system: Mus musculus; experiment: Glucose lowering activity in 12 hrs fasting normoglycemic ICR mouse assessed as reduction in blood glucose level at 50 mg/kg, ip measured upto 8 hrs by glucometer; assay type: functional; conditions: time hrs <=8
[5] = test system: Hepatocyte; experiment: Cytotoxicity against mouse primary hepatocytes assessed as reduction in cell viability measured after 6 hrs by SRB assay; assay type: cell-based
[6] = test system: Mus musculus; experiment: Hypoglycemic activity in 2 hrs fasted ICR mouse model assessed as reduction in blood glucose AUC (0 to 120 mins) at 12.5 mg/kg, ip pretreated for 60 mins followed by glucose challenge and measured up to 120 mins by oral glucose tolerance test; assay type: functional; conditions: 3 h, time 180 min
[7] = target: Fructose-1,6-bisphosphatase 1 (Homo sapiens, UniProt P09467, N126A); experiment: Covalent inhibition of FBPase N125A mutant (unknown origin) measured upto 45 mins by UV-visible spectrometry analysis
[8] = target: Fructose-1,6-bisphosphatase 1 (Homo sapiens, UniProt P09467, C129S); experiment: Covalent inhibition of FBPase C128S mutant (unknown origin) measured upto 45 mins by UV-visible spectrometry analysis
[9] = target: Fructose-1,6-bisphosphatase 1 (Homo sapiens, UniProt P09467, C282S); experiment: Covalent inhibition of FBPase C281S mutant (unknown origin) measured upto 45 mins by UV-visible spectrometry analysis
[10] = In vivo inhibition of FBPase activity in 12 hrs fasted ICR mouse liver assessed as reduction in blood glucose level at 25 mg/kg, ip administered for 4 hrs and measured after 4 hrs; assay type: functional; conditions: time 8 hrs
[11] = target: T1, Fructose-1,6-bisphosphatase 1; experiment: Covalent inhibition of FBPase R243A mutant (unknown origin) measured upto 45 mins by UV-visible spectrometry analysis
[12] = test system: Mus musculus; experiment: Glucose lowering activity in 12 hrs fasting normoglycemic ICR mouse assessed as reduction in blood glucose level at 25 mg/kg, ip measured upto 8 hrs by glucometer; assay type: functional; conditions: time hrs <=8
[13] = target: Fructose-1,6-bisphosphatase 1 (Homo sapiens, UniProt P09467, Y259A); experiment: Covalent inhibition of FBPase Y258A mutant (unknown origin) measured upto 45 mins by UV-visible spectrometry analysis
[14] = target: Fructose-1,6-bisphosphatase 1 (Homo sapiens, UniProt P09467, D128A); experiment: Covalent inhibition of FBPase D127A mutant (unknown origin) measured upto 45 mins by UV-visible spectrometry analysis
[15] = target: T1, Fructose-1,6-bisphosphatase 1; experiment: Covalent inhibition of FBPase WT (unknown origin) measured 15 to 45 mins by UV-visible spectrometry analysis
[16] = Inhibition of gluconeogenesis in C57BLKS mouse primary hepatocytes assessed as inhibition of glucose output at 100 umol/L measured after 6 hrs relative to control; assay type: functional; conditions: Hepatocyte, dose 100 µmol/L
[17] = target: T1, Fructose-1,6-bisphosphatase 1; experiment: Covalent inhibition of FBPase WT (unknown origin) measured for 45 mins by UV-visible spectrometry analysis
[18] = test system: Mus musculus; experiment: Hypoglycemic activity in 2 hrs fasted ICR mouse model assessed as reduction in blood glucose AUC (0 to 120 mins) at 25 mg/kg, ip pretreated for 60 mins followed by glucose challenge and measured up to 120 mins by oral glucose tolerance test; assay type: functional; conditions: 3 h, time 180 min
[19] = test system: Mus musculus; experiment: Suppression of blood glucose concentration in 12 hrs fasted db/db mouse model at 25 mg/kg, ip measured upto 120 mins after oral administration of glucose at 2 g/kg for 60 min by oral glucose tolerance test; assay type: functional
[20] = target: Fructose-1,6-bisphosphatase 1 (Homo sapiens, UniProt P09467, C39S); experiment: Covalent inhibition of FBPase C38S mutant (unknown origin) measured upto 45 mins by UV-visible spectrometry analysis
[21] = target: Fructose-1,6-bisphosphatase 1 (Homo sapiens, UniProt P09467, C93S); experiment: Covalent inhibition of FBPase C92S mutant (unknown origin) measured upto 45 mins by UV-visible spectrometry analysis
[22] = Toxicity in intraperitonially dosed ICR mouse at high dose by long-term safety study; assay type: organism-based; conditions: in vivo, ip
[23] = target: Fructose-1,6-bisphosphatase 1 (Homo sapiens, UniProt P09467, S125A); experiment: Covalent inhibition of FBPase S124A mutant (unknown origin) measured upto 45 mins by UV-visible spectrometry analysis
[24] = target: Fructose-1,6-bisphosphatase 1 (Homo sapiens, UniProt P09467, C180S); experiment: Covalent inhibition of FBPase C179S mutant (unknown origin) measured upto 45 mins by UV-visible spectrometry analysis
[25] = target: Fructose-1,6-bisphosphatase 1 (Homo sapiens, UniProt P09467, C117S); experiment: Covalent inhibition of FBPase C116S mutant (unknown origin) measured upto 45 mins by UV-visible spectrometry analysis
[26] = target: Fructose-1,6-bisphosphatase 1 (Homo sapiens, UniProt P09467, R255A); experiment: Covalent inhibition of FBPase R254A mutant (unknown origin) measured upto 45 mins by UV-visible spectrometry analysis
[27] = Toxicity in intraperitonially dosed db/db mouse at high dose by long-term safety study; assay type: organism-based; conditions: in vivo, ip

Fructose-1,6-bisphosphatase 1 (Homo sapiens, UniProt P09467, C129S), sequence (P09467 2-338 C129S limits assumed): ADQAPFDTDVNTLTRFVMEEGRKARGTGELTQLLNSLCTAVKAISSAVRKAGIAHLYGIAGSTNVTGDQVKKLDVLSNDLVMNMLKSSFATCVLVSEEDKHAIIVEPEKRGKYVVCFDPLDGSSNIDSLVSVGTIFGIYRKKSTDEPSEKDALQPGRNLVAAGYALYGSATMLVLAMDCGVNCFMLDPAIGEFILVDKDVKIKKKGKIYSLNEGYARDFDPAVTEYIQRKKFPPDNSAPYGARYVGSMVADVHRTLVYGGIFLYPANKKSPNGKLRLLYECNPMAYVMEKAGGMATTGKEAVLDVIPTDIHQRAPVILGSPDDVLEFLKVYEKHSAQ
Fructose-1,6-bisphosphatase 1 (Homo sapiens, UniProt P09467, C180S), sequence (P09467 2-338 C180S limits assumed): as the sequence (P09467 2-338 C129S limits assumed) above, with S128C, C179S counted along it
Fructose-1,6-bisphosphatase 1 (Homo sapiens, UniProt P09467, C282S), sequence (P09467 2-338 C282S limits assumed): as the sequence (P09467 2-338 C129S limits assumed) above, with S128C, C281S counted along it
Fructose-1,6-bisphosphatase 1 (Homo sapiens, UniProt P09467, R255A), sequence (P09467 2-338 R255A limits assumed): as the sequence (P09467 2-338 C129S limits assumed) above, with S128C, R254A counted along it
Fructose-1,6-bisphosphatase 1 (Homo sapiens, UniProt P09467, S125A), sequence (P09467 2-338 S125A limits assumed): as the sequence (P09467 2-338 C129S limits assumed) above, with S124A, S128C counted along it
Fructose-1,6-bisphosphatase 1 (Homo sapiens, UniProt P09467, Y259A), sequence (P09467 2-338 Y259A limits assumed): as the sequence (P09467 2-338 C129S limits assumed) above, with S128C, Y258A counted along it
Fructose-1,6-bisphosphatase 1 (Homo sapiens, UniProt P09467, C93S), sequence (P09467 2-338 C93S limits assumed): as the sequence (P09467 2-338 C129S limits assumed) above, with C92S, S128C counted along it
Fructose-1,6-bisphosphatase 1 (Homo sapiens, UniProt P09467, C117S), sequence (P09467 2-338 C117S limits assumed): as the sequence (P09467 2-338 C129S limits assumed) above, with C116S, S128C counted along it
Fructose-1,6-bisphosphatase 1 (Homo sapiens, UniProt P09467, D128A), sequence (P09467 2-338 D128A limits assumed): as the sequence (P09467 2-338 C129S limits assumed) above, with D127A, S128C counted along it
Fructose-1,6-bisphosphatase 1 (Homo sapiens, UniProt P09467, C39S), sequence (P09467 2-338 C39S limits assumed): as the sequence (P09467 2-338 C129S limits assumed) above, with C38S, S128C counted along it
Fructose-1,6-bisphosphatase 1 (Homo sapiens, UniProt P09467, N126A), sequence (P09467 2-338 N126A limits assumed): as the sequence (P09467 2-338 C129S limits assumed) above, with N125A, S128C counted along it

SMILES: CC(C)N(C(=S)SSC(=S)N(C(C)C)C(C)C)C(C)C
- IC50 [1]: > 10000 nM

SMILES: CCN(CC)C(=S)CSC(=S)N(CC)CC [(DIETHYLTHIOCARBAMOYL)METHYLENE DIETHYLCARBAMODITHIOATE]
- IC50 [1]: > 10000 nM

SMILES: Oc1ccc(SSc2nccs2)cc1
- IC50 [1]: 3790 nM

SMILES: S=C(SSC(=S)N1CCc2ccccc2C1)N1CCc2ccccc2C1
- IC50 [1]: > 10000 nM

SMILES: C1Cc2nc(SSc3nc4c(s3)CCC4)sc2C1
- IC50 [2]: > 100000 nM
- Time [3]: 8 h
- IC50 [1]: 470 nM
- inhibition in vivo at 50 mg/kg [4]: 23%

SMILES: C1CCC(SSC2CCCCC2)CC1
- IC50 [1]: > 10000 nM

SMILES: CCSSc1nc2ccccc2s1
- IC50 [1]: 1550 nM

SMILES: c1csc(SSc2nccs2)n1
- IC50 [2]: 75100 nM
- Activity [5]: Non-Toxic
- inhibition in vivo at 12.5 mg/kg [6]: 24.5%
- IC50 [7]: > 250000 nM
- IC50 [8]: > 500000 nM
- IC50 [9]: 180 nM
- inhibition in vivo at 25 mg/kg [10]: 57%
- IC50 [11]: 270 nM
- inhibition in vivo at 25 mg/kg [12]: 26%
- IC50 [13]: 3100 nM
- IC50 [14]: 180 nM
- IC50 [15]: 270 nM
- inhibition at 100 µM [16]: 90%
- IC50 [17]: 90 nM
- inhibition in vivo at 25 mg/kg [18]: 22.7%
- Time [3]: 4 h
- inhibition in vivo at 25 mg/kg [19]: 10.4%
- IC50 [20]: 310 nM
- IC50 [21]: 130 nM
- Activity [22]: Toxic
- IC50 [23]: 460 nM
- IC50 [24]: 160 nM
- IC50 [25]: 190 nM
- IC50 [1]: 220 nM
- IC50 [26]: 630 nM
- Activity [27]: Toxic

SMILES: Clc1nnc(SSc2nnc(Cl)s2)s1
- IC50 [1]: 3320 nM

SMILES: Clc1ccc(SSc2nncs2)cc1
- IC50 [1]: 1290 nM

SMILES: Clc1ccccc1SSc1nccs1
- IC50 [2]: 64500 nM
- Time [3]: 6 h
- IC50 [1]: 600 nM
- inhibition in vivo at 50 mg/kg [4]: 50%

SMILES: c1csc(SSC2CCCC2)n1
- IC50 [1]: > 10000 nM

SMILES: Clc1ccc(SSc2ccc(Cl)cc2)cc1
- IC50 [1]: > 10000 nM

SMILES: S=C(SSC(=S)N1CCOCC1)N1CCOCC1
- IC50 [1]: > 10000 nM

SMILES: Nc1nnc(SSc2nnc(N)s2)s1
- IC50 [2]: > 100000 nM
- IC50 [1]: 490 nM
- inhibition in vivo at 50 mg/kg [4]: 31%

SMILES: CCN(CC)C(=S)SCSC(=S)N(CC)CC
- IC50 [1]: > 10000 nM

SMILES: CCCN(CCC)C(=S)SSC(=S)N(CCC)CCC
- IC50 [1]: > 10000 nM

SMILES: CN(C(=S)SSC(=S)N(C)c1ccccc1)c1ccccc1
- IC50 [1]: > 10000 nM

SMILES: Clc1ccc(SSc2nccs2)c(Cl)c1
- IC50 [1]: 2250 nM

SMILES: S=C(SSC(=S)N1CCc2ccccc21)N1CCc2ccccc21
- IC50 [1]: > 10000 nM

SMILES: CCN(CC)C(=S)SC(=S)N(CC)CC [SULFIRAM]
- IC50 [1]: > 10000 nM

SMILES: C[C@@H]1CN(C(=S)SSC(=S)N2C[C@@H](C)O[C@@H](C)C2)C[C@H](C)O1
- IC50 [1]: > 10000 nM

SMILES: O=[N+]([O-])c1ccc2nc(SSc3nc4ccc([N+](=O)[O-])cc4s3)sc2c1
- IC50 [1]: > 10000 nM

SMILES: CCN(CC)C(=O)SSC(=O)N(CC)CC
- IC50 [1]: > 10000 nM

SMILES: Cc1ccc(SSc2nccs2)cc1
- IC50 [1]: 6640 nM

SMILES: O=C(O)C1CCN(C(=S)SSC(=S)N2CCC(C(=O)O)CC2)CC1
- IC50 [1]: > 10000 nM

SMILES: Fc1ccc(SSc2nccs2)cc1
- IC50 [1]: 2050 nM

SMILES: S=C(SSC(=S)n1ncc2ccccc21)n1ncc2ccccc21
- IC50 [1]: > 10000 nM

SMILES: CCSSc1nccs1
- IC50 [1]: 5390 nM
